Test system: neurokinin receptors such as NK-P, NK-A and NK-B
Settings: several in vitro models

Question: Which neurokinin-like activity does the source give for CSCC[C@H](NC(=O)[C@H](CC(C)C)NC(=O)CNC(=O)OCCCCCn1cnc2c(=O)[nH]cnc21)C(=O)O [Example 3] here?
Answer: Its neurokinin-like activity is “showed neurokinin-like activity”.
